From US20250084453A1, “SYSTEMS, COMPOSITIONS AND METHODS FOR IDENTIFYING E3 LIGASE SUBSTRATES BY UBIQUITIN BIOTINYLATION” (The Broad Institute, Inc., priority 2022, published 2025)

Assays:
[1] = test system: CRBN E3 ligase; assay: Mass spectrometry of streptavidin pulldown of biotinylated ubiquitinated proteins, CRBN-BirA 293T cells with Avi-Ub or A3-Ub; assay type: cell-based, human
Protocol: The cells were either treated or untreated with carfilzomib (0.4 μM) for 1 hour and were either treated or untreated with the CRBN-IMiD modifying agent CC-885 (1 μM) for another hour. […] As discussed above in Example 1, the GSPT1 substrate of BirA-tagged CRBN is expressed endogenously in 293T cells.
For such MS analyses, 50 μl of resuspended streptavidin beads were incubated with 1 ml of cell lysates (3 mg/ml) at 4° C. overnight. On the next day, the beads were pelleted (400×g, 1 minute), washed two times with 2% SDS (2% SDS, 25 mM Tris-HCl pH 7.5), and then washed three times with 6M urea (6M urea, 50 mM Tris-HCl pH 8). Each wash was performed by rotating the samples at room temperature for at least five minutes. Following the washes, the beads were resuspended in 90 μl of 2M urea, to which 10 μl of 0.1M TCEP (tris(2-carboxyethyl)phosphine, reducing agent) was added for a final concentration of 10 mM TCEP. The samples were agitated at 37° C. for 30 minutes to allow for protein reduction. Next, 10 μl of 0.165 M IAA, (iodoacetamide, alkylating agent) was added to a final concentration of 15 mM IAA. The samples were agitated in the dark at room temperature for 45 minutes. Thereafter, 1 μg of trypsin/LysC (Promega, Trypsin/Lys-C Mix, Mass Spec Grade, V5071) was added to each sample, and the samples were agitated for 3-4 hours at 37° C. Subsequently, 0.5 μg of trypsin/LysC (Promega, Trypsin/Lys-C Mix, Mass Spec Grade, V5071) was added to each sample, and the samples were agitated overnight at 37° C. On the next day, the supernatant containing the digested peptides was collected. The beads were washed two times with HPLC-grade water and were combined with the previously collected supernatant. Samples were centrifuged at 21,000×g for 10 minutes, and the clarified supernatant at the top was saved. Samples were acidified by the addition of 50% formic acid to a final concentration of 2%. Samples were vacuum dried (Speedvac) overnight and kept at −80° C. until ready for analysis by MS. […]
The preparation of cellular lysate was as described above for Cell Lysis, except that the RIPA buffer was supplemented with COMPLETE™ EDTA-free protease inhibitor cocktail (Roche; 04693159001; 1 tablet per 10 ml of buffer), benzonase (Millipore; E1014; 1 μl per 10 ml of buffer), 1.5 mM MgCl2, 1 mM EGTA, and 10 mM NEM (N-ethylmaleimide). For each sample, 1 ml of 3 mg/ml lysate was rotated overnight at 4° C. with 50 μl of resuspended streptavidin Sepharose beads (CYTIVA™; 17511301), which were pre-washed with RIPA lysis buffer 3 times. For all steps that required pelleting of beads, centrifugation was performed at 400×g for 1 minute. On the next day, streptavidin beads were pelleted, and the supernatant (a.k.a. flow-through) was either saved for analysis by Western blotting or was discarded.

[2] = test system: GSPT1; assay: GSPT1 degradation by Western blot in HEK293T cells and CRBN-/- derivatives; assay type: cell-based, human
Protocol: However, instead of assessing transiently-expressed V5-tagged IKZF1, an endogenous neo-substrate of CRBN, namely, GSPT1, was assessed. […] Following incubation with the components and added agents, the cells were lysed, and streptavidin-coated beads were used to capture from the cell lysate biotinylated, ubiquitinated proteins, e.g., the endogenous GSPT1 substrate. The biotinylated proteins eluted from the beads were subjected to Western blot analyses.

[3] = Table 3 (head Avi-, text A3-Ub), DMSO 0
[4] = Table 3 (head Avi-, text A3-Ub), DMSO 3
[5] = Table 3 (head Avi-, text A3-Ub), DMSO 5
[6] = Table 3 (head Avi-, text A3-Ub), DMSO 6
[7] = Table 3 (head Avi-, text A3-Ub), DMSO 7
[8] = Table 3 (head Avi-, text A3-Ub), DMSO 9
[9] = Table 3 (head Avi-, text A3-Ub), DMSO 15

## Cc1ccc(NC(=O)NCc2ccc3c(c2)CN(C2CCC(=O)NC2=O)C3=O)cc1Cl (stereo not shown) [CC-885]
[1]; A3-Ub, triplicates, log2 FC and p-value (limma), FIG. 9
  Most upregulated proteins in streptavidin pulldown versus DMSO: GSPT1 and GSPT2
[1]; Table 2, Avi-Ub, DMSO 0
  # of PSMs, GSPT1: 25
  # of PSMs, GSPT2: 13
[1]; Table 2, Avi-Ub, DMSO 9
  # of PSMs, POLR2A: 11
[1]; Table 2, Avi-Ub, DMSO 10
  # of PSMs, PSMD4: 11
  # of PSMs, VCL: 56
[1]; Table 2, Avi-Ub, DMSO 12
  # of PSMs, SMC1A: 13
[1]; Table 2, Avi-Ub, DMSO 14
  # of PSMs, H2AFV: 14
[1]; Table 2, Avi-Ub, DMSO 15
  # of PSMs, CTNNA1: 12
[1]; Table 2, Avi-Ub, DMSO 16
  # of PSMs, gene symbol printed as image P00007: 18
[1]; Table 2, Avi-Ub, DMSO 17
  # of PSMs, DYNC1H1: 13
  # of PSMs, RPS3: 21
[1]; Table 2, Avi-Ub, DMSO 18
  # of PSMs, HSPA1B; HSPA1A: 18
[1]; Table 2, Avi-Ub, DMSO 19
  # of PSMs, HIST2H2AC: 18
  # of PSMs, UBE2K: 17
[1]; Table 2, Avi-Ub, DMSO 20
  # of PSMs, CTNNB1: 15
  # of PSMs, HSPA8: 13
  # of PSMs, MCCC1: 16
  # of PSMs, PRPF8: 19
  # of PSMs, UBE2N: 14
  # of PSMs, VCP: 11
[1]; Table 2, Avi-Ub, DMSO 21
  # of PSMs, DSP: 14
  # of PSMs, gene symbol printed as image P00006: 13
[1]; Table 2, Avi-Ub, DMSO 22
  # of PSMs, EEF2: 13
  # of PSMs, HSP90AB1: 15
  # of PSMs, gene symbol printed as image P00001: 15
  # of PSMs, gene symbol printed as image P00003: 14
[1]; Table 2, Avi-Ub, DMSO 23
  # of PSMs, AMOT: 19
[1]; Table 2, Avi-Ub, DMSO 24
  # of PSMs, HSP90AA1: 13
  # of PSMs, PRKDC: 17
[1]; Table 2, Avi-Ub, DMSO 28
  # of PSMs, FASN: 17
[1]; Table 2, Avi-Ub, DMSO 32
  # of PSMs, USP9X: 21
[1]; Table 2, Avi-Ub, DMSO 34
  # of PSMs, UBA1: 31
  # of PSMs, gene symbol printed as image P00004: 30
[1]; Table 2, Avi-Ub, DMSO 36
  # of PSMs, gene symbol printed as image P00005: 29
[1]; Table 2, Avi-Ub, DMSO 37
  # of PSMs, UBE2O: 23
[1]; Table 2, Avi-Ub, DMSO 39
  # of PSMs, UBA6: 37
  # of PSMs, gene symbol printed as image P00002: 33
[1]; Table 2, Avi-Ub, DMSO 45
  # of PSMs, PCCA: 41
[1]; Table 2, Avi-Ub, DMSO 60
  # of PSMs, ACACA: 52
[1]; Table 2, Avi-Ub, DMSO 116
  # of PSMs, PC: 104
[1]; [3]
  # of PSMs, ACACB: 17
  # of PSMs, GSPT1: 30
  # of PSMs, GSPT2: 20
  # of PSMs, HIST1H1D: 5
  # of PSMs, VCL: 9
[1]; [4]
  # of PSMs, CCDC144A: 10
  # of PSMs, DDX5: 5
[1]; [5]
  # of PSMs, HIST2H2BF: 5
  # of PSMs, SPEN: 9
[1]; [6]
  # of PSMs, HIST2H2BE: 6
  # of PSMs, THAP5: 7
  # of PSMs, gene symbol printed as image P00009: 6
[1]; [7]
  # of PSMs, CCT8: 14
  # of PSMs, EEF1A1: 6
  # of PSMs, EEF2: 5
  # of PSMs, ENO1: 6
  # of PSMs, UBE2N: 6
[1]; [8]
  # of PSMs, HIST1H4A . . .: 9
  # of PSMs, HSP90AB1: 9
[1]; Table 3 (head Avi-, text A3-Ub), DMSO 10
  # of PSMs, gene symbol printed as image P00010: 11
[1]; Table 3 (head Avi-, text A3-Ub), DMSO 14
  # of PSMs, HSP90AA1: 12
[1]; [9]
  # of PSMs, HSPA1B; HSPA1A: 6
  # of PSMs, HSPA8: 10
[1]; Table 3 (head Avi-, text A3-Ub), DMSO 23
  # of PSMs, gene symbol printed as image P00008: 17
[1]; Table 3 (head Avi-, text A3-Ub), DMSO 26
  # of PSMs, MCCC1: 24
[1]; Table 3 (head Avi-, text A3-Ub), DMSO 71
  # of PSMs, ACACA: 75
[1]; Table 3 (head Avi-, text A3-Ub), DMSO 106
  # of PSMs, PCCA: 103
[1]; Table 3 (head Avi-, text A3-Ub), DMSO 155
  # of PSMs, PC: 167
[2]; 293T CRBN-/- CRBN-BirA cells with Avi-HA-Ub, 1 μM, 2 hours
  GSPT1 degradation (Western blot, FIG. 5A): degraded
[2]; 293T CRBN-/- cells expressing BirA-CRBN or CRBN-BirA, 1 μM, 4 hours
  GSPT1 degradation (Western blot): degraded
[2]; 293T CRBN-/- cells, 1 μM, 4 hours
  GSPT1 degradation (Western blot): not degraded
[2]; HEK293T cells, 10 nM, 100 nM, 1 μM or 10 μM for 3.5 hours
  GSPT1 degradation (Western blot): degraded in cells in a dose-dependent matter
